Patent US20150105252A1, “SUBSTITUTED PYRAZOLES AS HERBICIDES” (E I DU PONT DE NEMOURS AND COMPANY, priority 2013, published 2015)

Key:
Conditions in all cases: scale 0 to 100
[1] = tested on: deadnettle; assay: Test D preemergence; assay type: in vivo, Lamium amplexicaule
Description: (§1) Seeds of plant species selected from bluegrass (annual bluegrass, Poa annua), blackgrass (Alopecurus myosuroides), canarygrass (littleseed canarygrass, Phalaris minor), chickweed (common chickweed, Stellaria media), galium (catchweed bedstraw, Galium aparine), bromegrass, downy (downy bromegrass, Bromus tectorum), field poppy (Papaver rhoeas), field violet (Viola arvensis), foxtail, green (green foxtail, Setaria viridis), deadnettle (henbit deadnettle, Lamium amplexicaule), ryegrass, Italian (Italian ryegrass, Lolium multiflorum), kochia (Kochia scoparia), lambsquarters (Chenopodium album), oilseed rape (Brassica napus), pigweed (redroot pigweed, Amaranthus retroflexus), chamomile (scentless chamomile, Matricaria inodora), speedwell (bird's-eye speedwell, Veronica persica), barley, spring (spring barley, Hordeum vulgare), wheat, spring (spring wheat, Triticum aestivum), buckwheat, wild (wild buckwheat, Polygonum convolvulus), mustard, wild (wild mustard, Sinapis arvensis), oat, wild (wild oat, Avena fatua), radish, wild (wild radish, Raphanus raphanistrum), windgrass (Apera spica-venti), Russian thistle (Salsola kali), barley, winter (winter barley, Hordeum vulgare), and wheat, winter (winter wheat, Triticum aestivum) were planted into a silt loam soil and treated preemergence with test chemicals formulated in a non-phytotoxic solvent mixture which included a surfactant.
(§2) At the same time, these species were planted in pots containing Redi-Earth® planting medium (Scotts Company, 14111 Scottslawn Road, Marysville, Ohio 43041) comprising spaghnum peat moss, vermiculite, wetting agent and starter nutrients and treated with postemergence applications of the test chemicals formulated in the same manner. Plants ranged in height from 2 to 18 cm (1- to 4-leaf stage). Treated plants and controls were maintained in a controlled growth environment for 14 to 21 days after which time all species were compared to controls and visually evaluated. Plant response ratings, summarized in Table D, are based on a scale of 0 to 100 where 0 is no effect and 100 is complete control. A dash (-) response means no test result.

[2] = tested on: buckwheat, wild; assay: Test D postemergence; assay type: in vivo, Polygonum convolvulus
Description: as §1, §2

[3] = tested on: oat, wild; assay: Test D postemergence; assay type: in vivo, Avena fatua
Description: as §1, §2

[4] = tested on: canarygrass; assay: Test D preemergence; assay type: in vivo, Phalaris minor
Description: as §1, §2

[5] = tested on: pigweed; assay: Test D postemergence; assay type: in vivo, Amaranthus retroflexus
Description: as §1, §2

[6] = tested on: radish, wild; assay: Test D preemergence; assay type: in vivo, Raphanus raphanistrum
Description: as §1, §2

[7] = tested on: radish, wild; assay: Test D postemergence; assay type: in vivo, Raphanus raphanistrum
Description: as §1, §2

[8] = tested on: foxtail, green; assay: Test D postemergence; assay type: in vivo, Setaria viridis
Description: as §1, §2

CCc1cc(C(=O)NC(C)C)nn1Cc1ccnc(C(F)(F)F)c1 [Compound 103]
Plant response rating, Deadnettle ([1]; 31 g ai/ha): 5
Plant response rating, Deadnettle ([1]; 62 g ai/ha): 15
Plant response rating, Deadnettle ([1]; 125 g ai/ha): 30
Plant response rating, Deadnettle ([1]; 250 g ai/ha): 30
Buckwheat, Wild plant response rating ([2]; Postemergence, 31 g ai/ha): 25
Buckwheat, Wild plant response rating ([2]; Postemergence, 125 g ai/ha): 55
Buckwheat, Wild plant response rating ([2]; Postemergence, 250 g ai/ha): 60
Buckwheat, Wild plant response rating ([2]; postemergence, 62 g ai/ha): 50
Oat, Wild plant response rating ([3]; Postemergence, 31 g ai/ha): 10
Oat, Wild plant response rating ([3]; Postemergence, 125 g ai/ha): 20
Oat, Wild plant response rating ([3]; Postemergence, 250 g ai/ha): 25
Oat, Wild plant response rating ([3]; postemergence, 62 g ai/ha): 15
Plant response rating, Canarygrass ([4]; 31 g ai/ha): 5
Plant response rating, Canarygrass ([4]; 62 g ai/ha): 55
Plant response rating, Canarygrass ([4]; 125 g ai/ha): 80
Plant response rating, Canarygrass ([4]; 250 g ai/ha): 100
Pigweed plant response rating ([5]; Postemergence, 31 g ai/ha): 70
Pigweed plant response rating ([5]; Postemergence, 125 g ai/ha): 65
Pigweed plant response rating ([5]; Postemergence, 250 g ai/ha): 70
Pigweed plant response rating ([5]; postemergence, 62 g ai/ha): 60
Plant response rating, Radish, Wild ([6]; 31 g ai/ha): 95
Plant response rating, Radish, Wild ([6]; 62 g ai/ha): 100
Plant response rating, Radish, Wild ([6]; 125 g ai/ha): 100
Plant response rating, Radish, Wild ([6]; 250 g ai/ha): 100
Radish, Wild plant response rating ([7]; Postemergence, 31 g ai/ha): 25
Radish, Wild plant response rating ([7]; Postemergence, 125 g ai/ha): 50
Radish, Wild plant response rating ([7]; Postemergence, 250 g ai/ha): 60
Radish, Wild plant response rating ([7]; postemergence, 62 g ai/ha): 35
Foxtail, Green plant response rating ([8]; Postemergence, 31 g ai/ha): 30
Foxtail, Green plant response rating ([8]; Postemergence, 125 g ai/ha): 35
Foxtail, Green plant response rating ([8]; Postemergence, 250 g ai/ha): 65
Foxtail, Green plant response rating ([8]; postemergence, 62 g ai/ha): 20

CCCc1cc(C(=O)NCC(F)(F)F)nn1Cc1cc(C(F)(F)F)nn1C [Compound 138]
Plant response rating, Deadnettle ([1]; 31 g ai/ha): 85
Plant response rating, Deadnettle ([1]; 62 g ai/ha): 100
Plant response rating, Deadnettle ([1]; 125 g ai/ha): 100
Plant response rating, Deadnettle ([1]; 250 g ai/ha): 100
Buckwheat, Wild plant response rating ([2]; Postemergence, 31 g ai/ha): 65
Buckwheat, Wild plant response rating ([2]; Postemergence, 125 g ai/ha): 70
Buckwheat, Wild plant response rating ([2]; Postemergence, 250 g ai/ha): 80
Buckwheat, Wild plant response rating ([2]; postemergence, 62 g ai/ha): 65
Oat, Wild plant response rating ([3]; Postemergence, 31 g ai/ha): 20
Oat, Wild plant response rating ([3]; Postemergence, 125 g ai/ha): 25
Oat, Wild plant response rating ([3]; Postemergence, 250 g ai/ha): 60
Oat, Wild plant response rating ([3]; postemergence, 62 g ai/ha): 20
Plant response rating, Canarygrass ([4]; 31 g ai/ha): 15
Plant response rating, Canarygrass ([4]; 62 g ai/ha): 70
Plant response rating, Canarygrass ([4]; 125 g ai/ha): 100
Plant response rating, Canarygrass ([4]; 250 g ai/ha): 100
Pigweed plant response rating ([5]; Postemergence, 31 g ai/ha): 90
Pigweed plant response rating ([5]; Postemergence, 125 g ai/ha): 90
Pigweed plant response rating ([5]; Postemergence, 250 g ai/ha): 90
Pigweed plant response rating ([5]; postemergence, 62 g ai/ha): 90
Plant response rating, Radish, Wild ([6]; 62 g ai/ha): 100
Plant response rating, Radish, Wild ([6]; 125 g ai/ha): 100
Plant response rating, Radish, Wild ([6]; 250 g ai/ha): 100
Radish, Wild plant response rating ([7]; Postemergence, 31 g ai/ha): 80
Radish, Wild plant response rating ([7]; Postemergence, 125 g ai/ha): 100
Radish, Wild plant response rating ([7]; Postemergence, 250 g ai/ha): 95
Radish, Wild plant response rating ([7]; postemergence, 62 g ai/ha): 80
Foxtail, Green plant response rating ([8]; Postemergence, 31 g ai/ha): 15
Foxtail, Green plant response rating ([8]; Postemergence, 125 g ai/ha): 65
Foxtail, Green plant response rating ([8]; Postemergence, 250 g ai/ha): 80
Foxtail, Green plant response rating ([8]; postemergence, 62 g ai/ha): 15

CCOc1cc(C(=O)NC2CC2)nn1Cc1ccnc(C(F)(F)F)c1 [Compound 189]
Plant response rating, Deadnettle ([1]; 31 g ai/ha): 90
Plant response rating, Deadnettle ([1]; 62 g ai/ha): 100
Plant response rating, Deadnettle ([1]; 125 g ai/ha): 100
Plant response rating, Deadnettle ([1]; 250 g ai/ha): 100
Buckwheat, Wild plant response rating ([2]; Postemergence, 31 g ai/ha): 70
Buckwheat, Wild plant response rating ([2]; Postemergence, 125 g ai/ha): 70
Buckwheat, Wild plant response rating ([2]; Postemergence, 250 g ai/ha): 80
Buckwheat, Wild plant response rating ([2]; postemergence, 62 g ai/ha): 70
Oat, Wild plant response rating ([3]; Postemergence, 31 g ai/ha): 20
Oat, Wild plant response rating ([3]; Postemergence, 125 g ai/ha): 30
Oat, Wild plant response rating ([3]; Postemergence, 250 g ai/ha): 35
Oat, Wild plant response rating ([3]; postemergence, 62 g ai/ha): 20
Plant response rating, Canarygrass ([4]; 31 g ai/ha): 10
Plant response rating, Canarygrass ([4]; 62 g ai/ha): 50
Plant response rating, Canarygrass ([4]; 125 g ai/ha): 85
Plant response rating, Canarygrass ([4]; 250 g ai/ha): 100
Pigweed plant response rating ([5]; Postemergence, 31 g ai/ha): 70
Pigweed plant response rating ([5]; Postemergence, 125 g ai/ha): 70
Pigweed plant response rating ([5]; Postemergence, 250 g ai/ha): 75
Pigweed plant response rating ([5]; postemergence, 62 g ai/ha): 70
Plant response rating, Radish, Wild ([6]; 62 g ai/ha): 70
Plant response rating, Radish, Wild ([6]; 125 g ai/ha): 100
Plant response rating, Radish, Wild ([6]; 250 g ai/ha): 100
Radish, Wild plant response rating ([7]; Postemergence, 31 g ai/ha): 60
Radish, Wild plant response rating ([7]; Postemergence, 125 g ai/ha): 65
Radish, Wild plant response rating ([7]; Postemergence, 250 g ai/ha): 85
Radish, Wild plant response rating ([7]; postemergence, 62 g ai/ha): 60
Foxtail, Green plant response rating ([8]; Postemergence, 31 g ai/ha): 20
Foxtail, Green plant response rating ([8]; Postemergence, 125 g ai/ha): 15
Foxtail, Green plant response rating ([8]; Postemergence, 250 g ai/ha): 50
Foxtail, Green plant response rating ([8]; postemergence, 62 g ai/ha): 20
